Reference: patent publication US20220033406A1, “C[…] AS ANTI-VIRALS” (priority 2018, published 2022)

How the values were obtained:
[1] = biological target: T1, Recombinant full-length HIV-1 Reverse Transcriptase (HIVrt) (Human immunodeficiency virus type 1 group M subtype B, UniProt P04585); assay: Inhibition of HIV reverse transcriptase (RdDp assay); assay type: biochemical; conditions: 1 nM HIVrt, 30° C., 40 min, 3H-TTP incorporation; Table 3 triphosphates
T1 construct: Recombinant full-length HIV-1 Reverse Transcriptase (HIVrt); purchased Abcam ab63979
Protocol: Recombinant full-length HIV-1 Reverse Transcriptase (HIVrt) was purchased from Abcam, catalog #ab63979. The last 385 nucleotide region of the HCV anti-genome complementary to the 5′ untranslated region (c5′UTR) was synthesized using T7 RNA polymerase Megascript kit from Ambion (Cat #AM1333). A DNA oligo served as an internal initiation primer and was purchased from IDT. Unless otherwise specified, reaction samples consisted of 20 nM c5′UTR RNA, 100 nM DNA primer, and 1 nM HIVrt, mixed together in a buffer containing 50 mM Tris pH 7.5, 100 mM KCl, 4 mM dithiothreitol (DTT), and 12.5 mM MgCl2. Reactions were initiated at 30° C. by adding 0.1 μM adenosine triphosphate (dATP), 0.1 μM cytosine triphosphate (dCTP), 1 μM guanosine triphosphate (dGTP), and 0.32 μM ^3H-thymidine triphosphate (^3H-TTP), in a final volume of 50 μL. After 40-mins incubation, the reaction was terminated by adding 60 μL of chilled 20% (w/v) trichloroacetic acid with 500 μM ATP to precipitate nucleic acids. After incubation at 4° C. for 1 h, the sample underwent filtration on a multiscreen BV […] 96-well plate (Millipore). 40 μL Microscint-20 (Perkin Elmer) was added to the well and the counts in the sample were determined by a Trilux Microbeta microplate scintillation reader (Wallac).
All data were analyzed with GraphPad Prism. The compound concentration at which the enzyme-catalyzed rate was reduced by 50% (IC50) was calculated by fitting the data to the equation Y=% Min+(% Max−% Min)/(1+X/IC50), where Y corresponds to the percent relative enzyme activity, % Min is the residual relative activity at saturating compound concentration, % Max is the relative maximum enzyme activity, and X corresponds to the compound concentration. The Ki was calculated using the Cheng-Prusoff equation assuming competitive inhibition relative to natural dNTP incorporation: K=IC50/(1+[dNTP]/Km), where [dNTP] is the concentration of natural dNTP and Km is the apparent Km for dNTP. The standard HIVrt RNA-dependent DNA polymerization (RdDp) assay was used to determine the IC50 values.

[2] = biological target: T2, Recombinant full-length HBV polymerase (HBVpol) (Hepatitis B virus genotype D subtype ayw, UniProt P03156); assay: Inhibition of HBV polymerase (RdDp assay); assay type: biochemical; conditions: HBVpol expressed in SF9 cells, 30° C., 120 min, 3H-TTP incorporation; Table 3 triphosphates; read-out: HBVrt IC50
T2 construct: Recombinant full-length HBV polymerase(HBVpol) was expressed in SF9 cells; made in house; host or cells: SF9 insect cells
T2 sequence (P03156 whole entry): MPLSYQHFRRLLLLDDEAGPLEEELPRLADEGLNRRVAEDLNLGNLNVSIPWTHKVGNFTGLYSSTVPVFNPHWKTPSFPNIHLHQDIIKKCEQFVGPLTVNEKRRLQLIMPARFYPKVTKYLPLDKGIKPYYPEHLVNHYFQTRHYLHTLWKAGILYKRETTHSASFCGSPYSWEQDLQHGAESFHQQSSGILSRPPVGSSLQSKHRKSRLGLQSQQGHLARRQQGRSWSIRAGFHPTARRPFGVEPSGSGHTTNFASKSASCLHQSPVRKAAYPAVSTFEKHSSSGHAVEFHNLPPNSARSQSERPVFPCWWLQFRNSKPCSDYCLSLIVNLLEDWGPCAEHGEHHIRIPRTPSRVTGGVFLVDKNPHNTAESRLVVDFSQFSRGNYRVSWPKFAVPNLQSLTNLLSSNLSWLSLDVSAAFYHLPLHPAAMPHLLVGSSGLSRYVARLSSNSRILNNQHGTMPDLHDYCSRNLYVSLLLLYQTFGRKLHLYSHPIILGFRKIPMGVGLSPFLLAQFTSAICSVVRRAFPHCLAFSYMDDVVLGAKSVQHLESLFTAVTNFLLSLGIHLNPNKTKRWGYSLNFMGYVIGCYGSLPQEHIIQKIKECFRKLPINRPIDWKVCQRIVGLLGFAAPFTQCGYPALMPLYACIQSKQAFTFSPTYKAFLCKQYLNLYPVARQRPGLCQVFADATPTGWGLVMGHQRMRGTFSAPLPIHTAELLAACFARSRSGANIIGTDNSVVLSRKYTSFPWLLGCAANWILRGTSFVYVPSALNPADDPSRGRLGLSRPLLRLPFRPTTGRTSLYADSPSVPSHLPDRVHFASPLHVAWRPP

| SMILES | IC50 [1] [nM] | IC50 [2] [nM] |
| --- | --- | --- |
| C=C1[C@@H](n2cnc3c(=O)[nH]c(N)nc32)C[C@H](O)[C@@]1(CF)COP(=O)(O)OP(=O)(O)OP(=O)(O)O [Example 28, ((1S,3S,5S)-3-(2-Amino-6-oxo-1,6-dihydro-9H-purin-9-yl)-1-(fluoromethyl)-5-hydroxy-2-methylenecyclopentyl)methyl Tetrahydrogen Triphosphate] | 749 | – |
| C=C1[C@@H](n2cnc3c(=O)[nH]c(N)nc32)C[C@H](O)[C@@]1(C#N)COP(=O)(O)OP(=O)(O)OP(=O)(O)O [Example 35, ((1S,3S,5S)-3-(2-Amino-6-oxo-1,6-dihydro-9H-purin-9-yl)-1-cyano-5-hydroxy-2-methylenecyclopentyl)methyl Tetrahydrogen Triphosphate] | 260 | – |
| C=C1[C@@H](n2ccc3c(N)ncnc32)C[C@H](O)[C@@]1(F)COP(=O)(O)OP(=O)(O)OP(=O)(O)O [Example 27, ((1S,3S,5S)-3-(4-Amino-7H-pyrrolo[2,3-d]pyrimidin-7-yl)-1-fluoro-5-hydroxy-2-methylenecyclopentyl)methyl Tetrahydrogen Triphosphate] | 65.9 | 7.2 |
| C=C1[C@@H](n2cc(C)c(=O)[nH]c2=O)C[C@H](O)[C@@]1(C#N)COP(=O)(O)OP(=O)(O)OP(=O)(O)O [Example 32, ((1S,3S,5S)-1-Cyano-5-hydroxy-3-(5-methyl-2,4-dioxo-3,4-dihydropyrimidin-1(2H)-yl)-2-methylenecyclopentyl)methyl Tetrahydrogen Triphosphate] | 476 | > 1000 |
| C=C1[C@H](COP(=O)(O)OP(=O)(O)OP(=O)(O)O)[C@@H](O)C[C@@H]1n1ccc2c(N)ncnc21 [Example 22, ((1R,3S,5S)-3-(4-Amino-7H-pyrrolo[2,3-d]pyrimidin-7-yl)-5-hydroxy-2-methylenecyclopentyl)methyl Tetrahydrogen Triphosphate] | 158 | – |
| C=C1[C@@H](n2cc(C)c(=O)[nH]c2=O)C[C@H](O)[C@@]1(CF)COP(=O)(O)OP(=O)(O)OP(=O)(O)O [Example 30, ((1S,3S,5S)-1-(Fluoromethyl)-5-hydroxy-3-(5-methyl-2,4-dioxo-3,4-dihydropyrimidin-1(2H)-yl)-2-methylenecyclopentyl)methyl Tetrahydrogen Triphosphate] | 1330 | – |
| C=C[C@]1(COP(=O)(O)OP(=O)(O)OP(=O)(O)O)C(=C)[C@@H](n2cnc3c(N)ncnc32)C[C@@H]1O [Example 37, ((1R,3S,5S)-3-(6-Amino-9H-purin-9-yl)-5-hydroxy-2-methylene-1-vinylcyclopentyl)methyl Tetrahydrogen Triphosphate] | > 10000 | – |
| C=C1[C@@H](n2cnc3c(N)ncnc32)C[C@H](O)[C@@]1(CCl)COP(=O)(O)OP(=O)(O)OP(=O)(O)O [Example 31, ((1S,3S,5S)-3-(6-Amino-9H-purin-9-yl)-1-(chloromethyl)-5-hydroxy-2-methylenecyclopentyl)methyl Tetrahydrogen Triphosphate] | 363 | – |
| C=C1[C@@H](n2ccc(N)nc2=O)C[C@H](O)[C@@]1(C#N)COP(=O)(O)OP(=O)(O)OP(=O)(O)O [Example 33, ((1S,3S,5S)-3-(4-Amino-2-oxopyrimidin-1(2H)-yl)-1-cyano-5-hydroxy-2-methylenecyclopentyl)methyl Tetrahydrogen Triphosphate] | 77.9 | 220 |
| C=C1[C@@H](n2ccc(N)nc2=O)C[C@H](O)[C@@]1(CF)COP(=O)(O)OP(=O)(O)OP(=O)(O)O [Example 29, ((1S,3S,5S)-3-(4-Amino-2-oxopyrimidin-1(2H)-yl)-1-(fluoromethyl)-5-hydroxy-2-methylenecyclopentyl)methyl Tetrahydrogen Triphosphate] | 326 | 380 |
| C=C1[C@@H](n2cnc3c(=O)[nH]c(N)nc32)C[C@H](O)[C@@]1(F)COP(=O)(O)OP(=O)(O)OP(=O)(O)O [Example 25, ((1S,3S,5S)-3-(2-Amino-6-oxo-1,6-dihydro-9H-purin-9-yl)-1-fluoro-5-hydroxy-2-methylenecyclopentyl)methyl Tetrahydrogen Triphosphate] | 251 | 9.9 |
| C#C[C@]1(COP(=O)(O)OP(=O)(O)OP(=O)(O)O)C(=C)[C@@H](n2cnc3c(N)ncnc32)C[C@@H]1O [Example 36] | 33.1 | – |
| C=C1[C@@H](n2cc(C)c(=O)[nH]c2=O)C[C@H](O)[C@@]1(F)COP(=O)(O)OP(=O)(O)OP(=O)(O)O [Example 24, ((1S,3S,5S)-1-Fluoro-5-hydroxy-3-(5-methyl-2,4-dioxo-3,4-dihydropyrimidin-1(2H)-yl)-2-methylenecyclopentyl)methyl Tetrahydrogen Triphosphate] | 267 | 2.9 |
| C=C1[C@H](COP(=O)(O)OP(=O)(O)OP(=O)(O)O)[C@@H](O)C[C@@H]1n1ccc2c(=O)[nH]c(N)nc21 [Example 23, ((1R,3S,5S)-3-(2-Amino-4-oxo-3,4-dihydro-7H-pyrrolo[2,3-d]pyrimidin-7-yl)-5-hydroxy-2-methylenecyclopentyl)methyl Tetrahydrogen Triphosphate] | 383 | 8.8 |
| C=C1[C@@H](n2cnc3c(N)ncnc32)C[C@H](O)[C@@]1(C#N)COP(=O)(O)OP(=O)(O)OP(=O)(O)O [Example 34, ((1S,3S,5S)-3-(6-Amino-9H-purin-9-yl)-1-cyano-5-hydroxy-2-methylenecyclopentyl)methyl Tetrahydrogen Triphosphate] | > 10000 | – |
| C=C1[C@@H](n2cnc3c(N)ncnc32)C[C@H](O)[C@@]1(F)COP(=O)(O)OP(=O)(O)OP(=O)(O)O [Example 26, ((1S,3S,5S)-3-(6-Amino-9H-purin-9-yl)-1-fluoro-5-hydroxy-2-methylenecyclopentyl)methyl Tetrahydrogen Triphosphate] | 81 | 8.2 |
